# Target: T1, KRAS G12C 1-169, his-tagged protein, GDP-loaded (Homo sapiens, UniProt P01116, G12C)
# T1 construct: KRAS G12C 1-169, his-tagged protein, GDP-loaded; His tag
# Assay: Biochemical assay: covalent modification of KRAS G12C, analysed by mass spectrometry (RapidFire/TOF or Q-Exactive); further: time not given here
# Assay type: binding
# Conditions: Modification activity, modification percentage from MS peak intensities
# Method in brief: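 Covalent adduct formation was quantified by intact-protein mass spectrometry, either TOF or C4 LC-Q Exactive Plus, as percent modified versus unmodified protein after deconvolution. Compounds at 8 or 32 μM final were incubated with 0.5 or 2 μM GDP-bound KRAS G12C(1-169)-His in Hepes/NaCl/MgCl2 buffer before acid quench.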
row,Compound,Binding %
1,"C=CC(=O)N1CC2(CCN(c3cnc(-c4ccccc4)c(-c4c(C)ccc5[nH]ncc45)c3C#N)C2)C1 [Compound I-207, 5-(2-acryloyl-2,6-diazaspiro[3.4]octan-6-yl)-3-(5-methyl-1H-indazol-4-yl)-2-phenylisonicotinonitrile]",++ (++ indicates binding activity from 50 to 85%)
2,"C=CC(=O)N1CC2(CCN(c3cnc(-c4ccccc4)c(-c4c(C)ccc5cnn(C)c45)c3C#N)C2)C1 [Compound I-208, 5-(2-acryloyl-2,6-diazaspiro[3.4]octan-6-yl)-3-(1,6-dimethyl-1H-indazol-7-yl)-2-phenylisonicotinonitrile]",+ (+ indicates binding activity greater than 0% and up to 50%)
3,"C=CC(=O)N1CC2(CCN(c3nc(N4CCC[C@@H]4CO)nc(-c4c(C)ccc5[nH]ncc45)c3C#N)C2)C1 [Compound I-209, 4-(2-acryloyl-2,6-diazaspiro[3.4]octan-6-yl)-2-((R)-2-(hydroxymethyl)pyrro-lidin-1-yl)-6-(5-methyl-1H-indazol-4-yl)pyrimidine-5-carbonitrile]",++ (++ indicates binding activity from 50 to 85%)
4,"C=CC(=O)N1CC2(CCN(c3nc(N4CCC[C@H]4CO)nc(-c4c(C)ccc5[nH]ncc45)c3C#N)C2)C1 [Compound I-210, 4-(2-acryloyl-2,6-diazaspiro[3.4]octan-6-yl)-2-((S)-2-(hydroxymethyl)pyrro-lidin-1-yl)-6-(5-methyl-1H-indazol-4-yl)pyrimidin-5-carbonitrile]",+ (+ indicates binding activity greater than 0% and up to 50%)
5,"C=CC(=O)N1CC2(CCN(c3nc(N4CCC[C@H](CO)C4)nc(-c4c(C)ccc5[nH]ncc45)c3C#N)C2)C1 [Compound I-211, 4-(2-acryloyl-2,6-diazaspiro[3.4]octan-6-yl)-2-((S)-3-(hydroxymethyl)piperi-din-1-yl)-6-(5-methyl-1H-indazol-4-yl)pyrimidine-5-carbonitrile]",++ (++ indicates binding activity from 50 to 85%)
6,"C=CC(=O)N1CC2(CCN(c3nc(N4CCC[C@@H](CO)C4)nc(-c4c(C)ccc5[nH]ncc45)c3C#N)C2)C1 [Compound I-212, 4-(2-acryloyl-2,6-diazaspiro[3.4]octan-6-yl)-2-((R)-3-(hydroxymethyl)piper-idin-1-yl)-6-(5-methyl-1H-indazol-4-yl)pyrimidine-5-carbontrile]",++ (++ indicates binding activity from 50 to 85%)
7,"C=CC(=O)N1CC2(CCN(c3nc(N4CCC(CN(C)C)CC4)nc(-c4c(C)ccc5[nH]ncc45)c3C#N)C2)C1 [Compound I-213, 4-(2-acryloyl-2,6-diazaspiro[3.4]octan-6-yl)-2-(4-((dimethylamino)meth-yl)piperidin-1-yl)-6-(5-methyl-1H-indazol-4-yl)pyrimidine-5-carbontrile]",+++ (+++ indicates binding activity greater than 85%)
8,"C=CC(=O)N1CC2(CCN(c3cnc(Oc4ccccc4)c(-c4c(C)ccc5[nH]ncc45)c3C#N)C2)C1 [Compound I-214, 5-(2-acryloyl-2,6-diazaspiro[3.4]octan-6-yl)-3-(5-methyl-1H-indazol-4-yl)-2-phenoxyisonicotinoni-trile]",++ (++ indicates binding activity from 50 to 85%)
9,"C=CC(=O)N1CC2(CCN(c3cnc(Oc4ccccc4)c(-c4c(C)ccc5cnn(C)c45)c3C#N)C2)C1 [Compound I-215, 5-(2-acryloyl-2,6-diazaspiro[3.4]octan-6-yl)-3-(1,6-dimethyl-1H-indazol-7-yl)-2-phenoxyisonicotinoni-trile]",++ (++ indicates binding activity from 50 to 85%)
10,"C=CC(=O)N1CC2(CCN(c3nc(N4CCC(N5CCN(C6CC6)CC5)CC4)nc(-c4c(C)ccc5cnn(C)c45)c3C#N)C2)C1 [Compound I-216, 4-(2-acryloyl-2,6-diazaspiro[3.4]octan-6-yl)-2-(4-(4-cyclopropylpiperazin-1-yl)piperidin-1-yl)-6-(1,6-dimethyl-1H-indazol-7-yl)pyrimidine-5-carbonitrile]",++ (++ indicates binding activity from 50 to 85%)
11,"C=CC(=O)N1CC2(CCN(c3nc(N4CCC(N5CCN(C6CC6)CC5)CC4)nc(-c4c(C)ccc5[nH]ncc45)c3C#N)C2)C1 [Compound I-217, 4-(2-acryloyl-2,6-diazaspiro[3.4]octan-6-yl)-2-(4-(4-cyclopropylpiperazin-1-yl)piperidin-1-yl)-6-(5-methyl-1H-indazol-4-yl)pyrimidine-5-carbonitrile]",++ (++ indicates binding activity from 50 to 85%)
12,"C=CC(=O)N1CC2(CCN(c3c(OCCCN(C)C)ncc(-c4c(C)ccc5[nH]ncc45)c3C#N)C2)C1 [Compound I-218, 3-(2-acryloyl-2,6-diazaspiro[3.4]octan-6-yl)-2-(3-(dimethylamino)pro-poxy)-5-(5-methyl-1H-indazol-4-yl)isonicotinonitrile]",++ (++ indicates binding activity from 50 to 85%)
13,"C=CC(=O)N1CC2(CCN(c3nc(OCc4ccccn4)nc(-c4c(C)ccc5[nH]ncc45)n3)C2)C1 [Compound I-219, 1-(6-(4-(5-methyl-1H-indazol-4-yl)-6-(pyridin-2-ylmethoxy)-1,3,5-triazin-2-yl)-2,6-diazaspiro[3.4]octan-2-yl)prop-2-en-1-one]",+ (+ indicates binding activity greater than 0% and up to 50%)
14,"C=CC(=O)N1CC2(CCN(c3cnc(OCc4ccccc4)c(-c4c(C)ccc5[nH]ncc45)c3C#N)C2)C1 [Compound I-220, 5-(2-acryloyl-2,6-diazaspiro[3.4]octan-6-yl)-2-(benzyloxy)-3-(5-methyl-1H-indazol-4-yl)isonicotinonitrile]",++ (++ indicates binding activity from 50 to 85%)
15,"C=CC(=O)N1CC2(CCN(c3cnc(OCCc4ccccc4)c(-c4c(C)ccc5[nH]ncc45)c3C#N)C2)C1 [Compound I-221, 5-(2-acryloyl-2,6-diazaspiro[3.4]octan-6-yl)-3-(5-methyl-1H-indazol-4-yl)-2-phenethoxyisonicoti-nonitrile]",++ (++ indicates binding activity from 50 to 85%)
16,"C=CC(=O)N1CC2(CCN(c3cnc(OCCc4ccccc4)c(-c4c(C)ccc5cnn(C)c45)c3C#N)C2)C1 [Compound I-222, 5-(2-acryloyl-2,6-diazaspiro[3.4]octan-6-yl)-3-(1,6-dimethyl-1H-indazol-7-yl)-2-phenethoxyisonicoti-nonitrile]",++ (++ indicates binding activity from 50 to 85%)
17,"C=CC(=O)N1CC2(CCN(c3cnc(Cc4ccccc4)c(-c4c(C)ccc5[nH]ncc45)c3C#N)C2)C1 [Compound I-223, 5-(2-acryloyl-2,6-diazaspiro[3.4]octan-6-yl)-2-benzyl-3-(5-methyl-1H-indazol-4-yl)isonicotinonitrile]",++ (++ indicates binding activity from 50 to 85%)
18,C=CC(=O)N1CC2(CCN(c3cnc(Cc4ccccc4)c(-c4c(C)ccc5cnn(C)c45)c3C#N)C2)C1 [Compound I-224],++ (++ indicates binding activity from 50 to 85%)
19,"C=CC(=O)N1CC2(CCN(c3cnc(OCc4ccccc4)c(-c4c(C)ccc5cnn(C)c45)c3C#N)C2)C1 [Compound I-225, 5-(2-acryloyl-2,6-diazaspiro[3.4]octan-6-yl)-2-(benzyloxy)-3-(1,6-dimethyl-1H-indazol-7-yl)isonicotinonitrile]",++ (++ indicates binding activity from 50 to 85%)
20,"C=CC(=O)N1CC2(CCN(c3cc(-c4c(C)ccc5cn[nH]c45)ncn3)C2)C1 [Compound I-226, 1-(6-(6-(6-methyl-1H-indazol-7-yl)pyrimidin-4-yl)-2,6-diazaspiro[3.4]octan-2-yl)prop-2-en-1-one]",+ (+ indicates binding activity greater than 0% and up to 50%)
21,"C=CC(=O)N1CC2(CCN(c3ncnc(-c4c(C)ccc5cn[nH]c45)c3C#N)C2)C1 [Compound I-227, 4-(2-acryloyl-2,6-diazaspiro[3.4]octan-6-yl)-6-(6-methyl-1H-indazol-7-yl)pyrimidine-5-carbonitrile]",+ (+ indicates binding activity greater than 0% and up to 50%)
22,"C=CC(=O)N1CC2(CCN(c3ncnc(-c4c(O)cccc4F)c3C#N)C2)C1 [Compound I-228, 4-(2-acryloyl-2,6-diazaspiro[3.4]octan-6-yl)-6-(2-fluoro-6-hydroxyphenyl)pyri-midine-5-carbonitrile]",+ (+ indicates binding activity greater than 0% and up to 50%)
23,"C=CC(=O)N1CC2(CCN(c3cc(-c4c(C)ccc5[nH]ncc45)ncn3)C2)C1 [Compound I-229, 1-(6-(6-(5-methyl-1H-indazol-4-yl)pyrimidin-4-yl)-2,6-diazaspiro[3.4]octan-2-yl)prop-2-en-1-one]",+ (+ indicates binding activity greater than 0% and up to 50%)
24,"C=CC(=O)N1CC2(CCN(c3cc(-c4c(O)cccc4F)ncn3)C2)C1 [Compound I-230, 1-(6-(6-(2-fluoro-6-hydroxyphenyl)pyri-midin-4-yl)-2,6-diazaspiro[3.4]octan-2-yl)prop-2-en-1-one]",+ (+ indicates binding activity greater than 0% and up to 50%)
25,"C=CC(=O)N1CC2(CCN(c3ncnc(-c4c(C)ccc5[nH]ncc45)c3C#N)C2)C1 [Compound I-231, 4-(2-acryloyl-2,6-diazaspiro[3.4]octan-6-yl)-6-(5-methyl-1H-indazol-4-yl)pyrimidine-5-carbonitrile]",+ (+ indicates binding activity greater than 0% and up to 50%)
26,"C=CC(=O)N1CC2(CCN(c3ncnc(C#Cc4c(C)ccc5[nH]ncc45)c3C#N)C2)C1 [Compound I-232, 4-(2-acryloyl-2,6-diazaspiro[3.4]octan-6-yl)-6-((5-methyl-1H-indazol-4-yl)ethynyl)pyrimidine-5-carbonitrile]",+ (+ indicates binding activity greater than 0% and up to 50%)
27,"C=CC(=O)N1CC2(CCN(c3ncnc(-c4cc(O)cc5ccccc45)c3C#N)C2)C1 [Compound I-233, 4-(2-acryloyl-2,6-diazaspiro[3.4]octan-6-yl)-6-(3-hydroxynaphthalen-1-yl)pyrimidine-5-carbonitrile]",+ (+ indicates binding activity greater than 0% and up to 50%)
